Key:
PI3Kalpha = PI3Kalpha (Homo sapiens (Human), UniProt P42336); assay: HTRF PI3K biochemical assay, alpha isoform (selectivity versus PI3Kalpha); settings: relative ratio (PI3K-alpha IC50 value/PI3K-delta IC50 value); form screened: Neutral
Excerpt: (§1) HTRF PI3K Biochemical Assay to Measure Intrinsic Potency of Compound Inhibitors
(§2) The PI3-Kinase biochemical assays were developed to measure the intrinsic potency and compound dependent inhibition of the alpha, beta, delta, and gamma PI3K isoform enzymes.
(§3) This assay was developed and further optimized from a kit produced by Upstate (Millipore catalog #33-047) and has been configured for HTS (high throughput screening) and SAR screening. Briefly, this procedure exploits the exquisite specificity and high affinity binding of enzyme reaction substrate phosphatidyl(3,4,5)triphosphate (PIP3) to the GRP1 pleckstrin homology (PH) domain to generate the signal. In the absence of PIP3, an HTRF (Homogeneous Time-Resolved Fluorescence energy transfer) complex is formed consisting of europium (Eu)-labeled anti-GST, GSTtagged GRP1-PH domain, biotin-PIP3 and streptavidin conjugated APC. The native PIP3 produced by PI3-Kinase activity disrupts in a competitive manner the biotin-PIP3 from the PH domain, resulting in the loss of energy transfer (HTRF complex) and a decrease in the signal. The format of this assay is the same for all 4 isoforms of PI3K; the differences lie in the concentration of enzyme used to achieve robust assay window. The alpha, beta, and delta assays are run at 0.5, 1, and 0.3 nM enzymes and the gamma assay is run at 5 nM enzyme. The ATP concentration is 100 uM in the alpha, beta, and delta assays and 50 uM ATP in the gamma assay. All reactions are run at 5 uM PIP2.
(§4) Compounds are serially diluted (3-fold in 100% DMSO) across a 384-well polypropylene source plated from column 3 to column 12 and column 13 to column 22, to yield 10 concentration dose response for each test compound. Columns 1, 2, 23 and 24 contain either only DMSO or pharmacological known control inhibitor. Once titrations are made, 2.5 nL of the compounds on 384 well plates are reformatted and transferred by acoustic dispense in quadruplicates to a 1536 assay plate (Greiner) to assay across all four PI3K isoform enzymes.
(§5) The PI3-Kinase biochemical assay was optimized using the HTRF kit provided by Upstate (Millipore). The assay kit contains six reagents: 1) 4× Reaction Buffer; 2) native PIP2 (substrate); 3) Stop (EDTA); 4) Detection Mix A (Streptavidin-APC); 5) Detection Mix B (Eu-labeled Anti-GST plus GST-tagged PH-domain); 6) Detection Mix C. In addition, the following items were obtained or purchased; PI3Kinase (alpha 14-602, beta 14-603, gamma 14-558 and delta 14-604 from Upstate; Millipore), dithiothreitol (Sigma, D-5545), Adenosine-5′ triphosphate (InVitrogen, Cat#AS001A), native PIP3 (PI(3,4,5)P3, diC8, H^+, CELLSIGNALS, INC. Cat #907) DMSO (Sigma, 472301).
PI3Kinase Reaction Buffer is prepared by dilution the stock 1:4 with de-ionized water. DTT, PIP2 and Biotin-PIP3 were added to 1536 assay plate at a final concentration of 5 mM, […] on the day of use. Enzyme addition and compound pre-incubation are initiated by the addition of 1.25 ul of PI3K (at twice its final concentration) in the 1× reaction buffer to all wells using a BioRaptor. Plates are incubated at RT for 15 minutes. Reactions are initiated by addition of 1.25 ul of 2× substrate solution (PIP2 and ATP in 1× reaction buffer) using BioRaptor. Plates are incubated in humidified chamber at RT for one hour. Reactions are quenched by addition of 0.625 uL of stop solution to all wells using the BioRaptor. The quenched reactions are then processed to detect product formation by adding 0.625 uL of Detection Solution to all wells using the BioRaptor (Detection mix C, Detection Mix A, and Detection Mix B combined together in an 18:1:1 ratio prepared 2 hours prior to use). Following a one hour incubation in the dark, the HTRF signal is measured on the Envision plate reader set for 330 nm excitation and dual emission detection at […]. […]

PI3Kdelta = PI3Kdelta (Homo sapiens (Human), UniProt O00329); assay: HTRF PI3K biochemical assay, delta isoform; settings: 0.3 nM enzyme, 100 uM ATP, 5 uM PIP2, form screened: Neutral
Excerpt: as §1, §2, §3, §4, §5
PI3Kinase Reaction Buffer is prepared by dilution the stock 1:4 with de-ionized water. DTT, PIP2 and Biotin-PIP3 were added to 1536 assay plate at a final concentration of 5 mM, […] on the day of use. Enzyme addition and compound pre-incubation are initiated by the addition of 1.25 ul of PI3K (at twice its final concentration) in the 1× reaction buffer to all wells using a BioRaptor. Plates are incubated at RT for 15 minutes. Reactions are initiated by addition of 1.25 ul of 2× substrate solution (PIP2 and ATP in 1× reaction buffer) using BioRaptor. Plates are incubated in humidified chamber at RT for one hour. Reactions are quenched by addition of 0.625 uL of stop solution to all wells using the BioRaptor. The quenched reactions are then processed to detect product formation by adding 0.625 uL of Detection Solution to all wells using the BioRaptor (Detection mix C, Detection Mix A, and Detection Mix B combined together in an 18:1:1 ratio prepared 2 hours prior to use). Following a one hour incubation in the dark, the HTRF signal is measured on the Envision plate reader set for 330 nm excitation and dual emission detection at 620 nM (Eu) and 665 nM (APC).

PI3Kalpha, sequence (P42336 whole entry, canonical isoform): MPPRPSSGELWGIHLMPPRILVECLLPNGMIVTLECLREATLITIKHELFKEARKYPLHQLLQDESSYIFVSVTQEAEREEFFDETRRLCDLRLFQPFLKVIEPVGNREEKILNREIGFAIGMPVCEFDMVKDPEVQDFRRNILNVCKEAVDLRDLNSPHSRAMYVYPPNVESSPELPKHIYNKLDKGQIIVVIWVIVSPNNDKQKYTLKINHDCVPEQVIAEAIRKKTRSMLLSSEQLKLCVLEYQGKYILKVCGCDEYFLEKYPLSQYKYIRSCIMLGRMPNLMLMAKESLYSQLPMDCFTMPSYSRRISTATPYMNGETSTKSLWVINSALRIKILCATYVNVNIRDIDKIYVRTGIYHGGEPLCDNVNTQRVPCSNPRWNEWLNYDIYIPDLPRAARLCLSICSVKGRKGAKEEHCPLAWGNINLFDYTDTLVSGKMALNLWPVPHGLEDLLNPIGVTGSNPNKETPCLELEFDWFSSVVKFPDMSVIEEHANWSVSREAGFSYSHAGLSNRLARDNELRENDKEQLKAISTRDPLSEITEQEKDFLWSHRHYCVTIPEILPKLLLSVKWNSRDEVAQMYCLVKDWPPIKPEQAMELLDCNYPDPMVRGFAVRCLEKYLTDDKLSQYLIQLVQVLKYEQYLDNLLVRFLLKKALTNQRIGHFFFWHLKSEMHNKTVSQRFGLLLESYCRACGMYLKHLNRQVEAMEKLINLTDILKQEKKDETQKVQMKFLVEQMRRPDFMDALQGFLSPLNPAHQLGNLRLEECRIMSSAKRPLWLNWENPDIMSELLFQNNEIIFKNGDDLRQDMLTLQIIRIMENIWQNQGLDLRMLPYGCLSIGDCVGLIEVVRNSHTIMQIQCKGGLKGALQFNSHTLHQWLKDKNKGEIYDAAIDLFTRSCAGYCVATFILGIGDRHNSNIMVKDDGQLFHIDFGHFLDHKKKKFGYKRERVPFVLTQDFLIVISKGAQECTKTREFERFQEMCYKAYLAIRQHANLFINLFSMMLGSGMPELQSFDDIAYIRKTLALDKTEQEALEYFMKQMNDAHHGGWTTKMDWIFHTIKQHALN
PI3Kalpha, sequence (P27986 whole entry partner, canonical isoform): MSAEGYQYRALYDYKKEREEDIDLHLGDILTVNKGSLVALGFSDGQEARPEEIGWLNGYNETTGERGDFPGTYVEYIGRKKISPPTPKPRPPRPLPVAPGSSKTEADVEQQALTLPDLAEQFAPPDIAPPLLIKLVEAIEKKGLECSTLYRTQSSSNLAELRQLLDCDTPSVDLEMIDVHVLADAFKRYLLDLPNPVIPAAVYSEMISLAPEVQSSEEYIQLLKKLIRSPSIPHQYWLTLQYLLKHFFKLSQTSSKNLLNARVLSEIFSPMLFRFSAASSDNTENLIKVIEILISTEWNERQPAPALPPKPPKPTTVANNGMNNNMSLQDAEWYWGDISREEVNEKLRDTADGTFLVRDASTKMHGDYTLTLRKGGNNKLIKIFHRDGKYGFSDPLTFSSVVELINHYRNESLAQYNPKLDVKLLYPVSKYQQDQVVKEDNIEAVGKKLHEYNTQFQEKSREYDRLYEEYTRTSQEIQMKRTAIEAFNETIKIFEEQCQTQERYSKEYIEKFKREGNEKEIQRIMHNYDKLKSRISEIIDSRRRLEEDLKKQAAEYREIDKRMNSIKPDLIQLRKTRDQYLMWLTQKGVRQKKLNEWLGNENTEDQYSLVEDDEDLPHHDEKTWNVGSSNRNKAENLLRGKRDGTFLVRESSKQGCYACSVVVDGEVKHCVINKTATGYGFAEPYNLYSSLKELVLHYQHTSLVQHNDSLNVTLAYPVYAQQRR
PI3Kdelta, sequence (O00329 whole entry, canonical isoform): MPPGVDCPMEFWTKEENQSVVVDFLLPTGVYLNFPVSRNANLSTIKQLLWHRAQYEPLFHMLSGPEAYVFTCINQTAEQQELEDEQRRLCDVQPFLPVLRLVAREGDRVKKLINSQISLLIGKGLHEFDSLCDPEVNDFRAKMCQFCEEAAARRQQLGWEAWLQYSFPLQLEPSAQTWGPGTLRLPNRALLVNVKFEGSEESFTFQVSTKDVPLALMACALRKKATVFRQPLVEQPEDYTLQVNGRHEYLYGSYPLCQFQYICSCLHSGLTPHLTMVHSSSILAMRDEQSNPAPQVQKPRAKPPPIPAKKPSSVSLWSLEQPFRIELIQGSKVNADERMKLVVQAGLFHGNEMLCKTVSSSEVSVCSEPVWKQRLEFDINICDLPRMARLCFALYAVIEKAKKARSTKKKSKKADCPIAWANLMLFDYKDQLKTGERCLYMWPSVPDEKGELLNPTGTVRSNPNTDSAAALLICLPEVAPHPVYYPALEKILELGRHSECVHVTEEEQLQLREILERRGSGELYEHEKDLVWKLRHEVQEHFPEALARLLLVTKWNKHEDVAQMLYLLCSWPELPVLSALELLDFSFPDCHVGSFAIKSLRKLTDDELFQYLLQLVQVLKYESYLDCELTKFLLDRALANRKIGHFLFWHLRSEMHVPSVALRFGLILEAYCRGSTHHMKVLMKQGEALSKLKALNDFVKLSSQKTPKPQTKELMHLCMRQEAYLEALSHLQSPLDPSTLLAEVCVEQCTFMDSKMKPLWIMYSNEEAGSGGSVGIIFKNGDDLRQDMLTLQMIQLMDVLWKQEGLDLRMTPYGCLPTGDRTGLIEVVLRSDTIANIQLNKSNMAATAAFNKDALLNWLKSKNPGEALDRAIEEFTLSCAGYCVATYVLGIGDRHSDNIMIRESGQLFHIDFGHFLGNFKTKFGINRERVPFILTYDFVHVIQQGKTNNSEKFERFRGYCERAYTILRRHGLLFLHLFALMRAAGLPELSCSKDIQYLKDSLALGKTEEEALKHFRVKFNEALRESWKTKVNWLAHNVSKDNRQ
PI3Kdelta, sequence (P27986 whole entry partner, canonical isoform): as the sequence (P27986 whole entry partner, canonical isoform) above

Selectivity versus PI3Kalpha (PI3Kalpha) | IC50 (PI3Kdelta) [µM] | Compound
>10 | 0.0052 | CCn1c(-c2cnc(C)nc2)nc2c(NC(C(=O)N3C[C@@H](C)O[C@@H](C)C3)C3CC3)ccnc21 (single isomer, unassigned) [Compound 3-4, N-{(R or S)-1-cyclopropyl-2-[(cis)-2,6-dimethylmorpholin-4-yl]-2-oxoethyl}-3-ethyl-2-(2-methylpyrimidin-5-yl)-3H-imidazo[4,5-b]pyridin-7-amine]
>10 | 0.03 | CCC(Nc1ncnc2c1nc(-c1cnc(C)nc1)n2CC)C(=O)N1CC(O)(C2CC2)C1 (single isomer, unassigned) [Compound 4-1, (S or R)-3-cyclopropyl-1-(2-{[9-ethyl-8-(2-methylpyrimidin-5-yl)-9H-purin-6-yl]amino}butanoyl)azetidin-3-ol]
>10 | 0.0061 | CC[C@H](Nc1ncnc2c1nc(-c1cnc(C)nc1)n2CC)C(=O)N1CC(=O)N(C)C(C)C1 (single isomer, unassigned) [Compound 4-5, (S or R)-4-[(2S)-2-{[9-ethyl-8-(2-methylpyrimidin-5-yl)-9H-purin-6-yl]amino}butanoyl]-1,6-dimethylpiperazin-2-one]
>10 | 0.026 | CC[C@H](Nc1ncnc2c1nc(-c1cnc(C)nc1)n2CC)C(=O)N1CC(=O)N(C)C(C)C1 (single isomer, unassigned) [Compound 4-6, (S or R)-4-[(2S)-2-{[9-ethyl-8-(2-methylpyrimidin-5-yl)-9H-purin-6-yl]amino}butanoyl]-1,6-dimethylpiperazin-2-one]
>10 | 0.038 | CCC(Nc1ncnc2c1nc(-c1cnc(C)nc1)n2CC)C(=O)N1CCn2c(CC(C)C)nnc2C1 (single isomer, unassigned) [Compound 5-1, (S or R)-9-ethyl-N-(1-{[3-(2-methylpropyl)-5,6-dihydro[1,2,4]triazolo[4,3-a]pyrazin-7(8H)-yl]carbonyl}propyl)-8-(2-methylpyrimidin-5-yl)-9H-purin-6-amine]
>10 | 0.039 | CCC(Nc1ncnc2c1nc(-c1cnc(C)nc1)n2CC)C(=O)N1CCc2c(c(C(C)C)nn2C)C1 (single isomer, unassigned) [Compound 5-2, (S or R)-9-ethyl-N-(1-{[1-methyl-3-(1-methylethyl)-1,4,6,7-tetrahydro-5H-pyrazolo[4,3-c]pyridin-5-yl]carbonyl}propyl)-8-(2-methylpyrimidin-5-yl)-9H-purin-6-amine]
>10 | 0.0091 | CC[C@H](Nc1ncnc2c1nc(-c1cnc(C)nc1)n2CC)C(=O)N1C[C@H](C)O[C@@H](C)C1 (stereo in doubt) [Compound 2-36, N-[(1S)-1-{[(trans)-2,6-dimethylmorpholin-4-yl]carbonyl}propyl]-9-ethyl-8-(2-methylpyrimidin-5-yl)-9H-purin-6-amine]
>10 | 0.015 | CCn1ncc(-c2nc3c(N[C@H](Cc4ccccc4)C(=O)N4CCOCC4)ncnc3n2C)c1C [Compound 2-1, N-[(1R)-1-benzyl-2-morpholin-4-yl-2-oxoethyl]-8-(1-ethyl-5-methyl-1H-pyrazol-4-yl)-9-methyl-9H-purin-6-amine]
>10 | 0.059 | CCn1ncc(-c2nc3c(N[C@@H](Cc4ccccc4)C(=O)N4CCOCC4)ncnc3n2C)c1C [Compound 2-2, N-[(1S)-1-benzyl-2-morpholin-4-yl-2-oxoethyl]-8-(1-ethyl-5-methyl-1H-pyrazol-4-yl)-9-methyl-9H-purin-6-amine]
>10 | 0.59 | CCn1c(-c2cnc(C)nc2)nc2c(NC3(C(=O)N4CCC(F)(F)CC4)CC3)ncnc21 [Compound 2-3, N-{1-[(4,4-difluoropiperidin-1-yl)carbonyl]cyclopropyl}-9-ethyl-8-(2-methylpyrimidin-5-yl)-9H-purin-6-amine]
>10 | 0.099 | CC[C@H](Nc1ncnc2c1nc(C(F)F)n2CC)C(=O)N1C[C@@H](C)O[C@@H](C)C1 [Compound 2-4, 8-(difluoromethyl)-N-[(1S)-1-{[(cis)-2,6-dimethylmorpholin-4-yl]carbonyl}propyl]-9-ethyl-9H-purin-6-amine]
>10 | 0.23 | CCn1c(C(F)F)nc2c(N[C@@H](C)C(=O)N3C[C@@H](C)O[C@@H](C)C3)ncnc21 [Compound 2-5, 8-(difluoromethyl)-N-{(1S)-2-[(cis)-2,6-dimethylmorpholin-4-yl]-1-methyl-2-oxoethyl}-9-ethyl-9H-purin-6-amine]
>10 | 0.0061 | CC[C@H](Nc1ncnc2c1nc(-c1cnc(C)nc1)n2CC)C(=O)N1C[C@@H](C)O[C@@H](C)C1 [Compound 2-6, N-[(1S)-1-{[(cis)-2,6-dimethylmorpholin-4-yl]carbonyl}propyl]-9-ethyl-8-(2-methylpyrimidin-5-yl)-9H-purin-6-amine]
>10 | 0.0028 | CC[C@H](Nc1ncnc2c1nc(-c1ccc(C(F)(F)F)nc1)n2CC)C(=O)N1C[C@@H](C)O[C@@H](C)C1 [Compound 2-7, N-[(1S)-1-{[(cis)-2,6-dimethylmorpholin-4-yl]carbonyl}propyl]-9-ethyl-8-[6-(trifluoromethyl)pyridin-3-yl]-9H-purin-6-amine]
>10 | 0.031 | CC[C@H](Nc1ncnc2c1nc(-c1cnc(C)nc1)n2CC)C(=O)N1CCS(=O)(=O)CC1 [Compound 2-8, N-{(1S)-1-[(1,1-dioxidothiomorpholin-4-yl)carbonyl]propyl}-9-ethyl-8-(2-methylpyrimidin-5-yl)-9H-purin-6-amine]
>10 | 0.062 | CC[C@H](Nc1ncnc2c1nc(-c1cnc(C)nc1)n2CC)C(=O)N1CCC(OCCOC)CC1 [Compound 2-10, 9-ethyl-N-[(1S)-1-{[4-(2-methoxyethoxy)piperidin-1-yl]carbonyl}propyl]-8-(2-methylpyrimidin-5-yl)-9H-purin-6-amine]
>10 | 0.06 | CC[C@H](Nc1ncnc2c1nc(-c1cnc(C)nc1)n2CC)C(=O)N1CC(C(F)F)C1 [Compound 2-11, N-[(1S)-1-{[3-(difluoromethyl)azetidin-1-yl]carbonyl}propyl]-9-ethyl-8-(2-methylpyrimidin-5-yl)-9H-purin-6-amine]

Source: patent US10221178B2, “Purine inhibitors of human phosphatidylinositol 3-kinase delta” (MERCK SHARP & DOHME CORP., priority 2015, dated 2019)
